Converted amounts (≈) assume the structure as drawn. Like-named read-outs stand apart in the source and are kept apart here.
Key:
E. faecium = test: Antibiotic susceptibility (MIC, Sensititre Trays) with rBPI21 poloxamer formulations; assay type: cell-based; conditions: for MIC: Enterococcus faecium, read-out: Minimum Inhibitory Concentration
Procedure: The effect of therapeutic compositions of rBPI21 formulated with poloxamer, with or without EDTA, was evaluated on the antibiotic susceptibility of the multiple drug resistant A. baumannii, S. pneumoniae, E. faecium and P. aeruginosa organisms of Example 5. Therapeutic compositions were prepared containing 2 mg/mL rBPI21, (5 mM sodium citrate, 150 mM NaCl) with a 0.2% (w/v) concentration of PLURONIC F68, P103, P104, P105 or P123. The effect on the antibiotic susceptibility of the organisms was determined in Mueller-Hinton Broth plus Cations (CSMHB, Remel), or 40% pooled human serum in CSMHB (Sigma, St. Louis, Mo.), as follows.
Isolated colonies of the organism from overnight cultures were suspended in Microscan® Inoculum Water to a concentration equivalent to a 0.5 McFarland Standard (approximately 1×10^8 CFU/ml), determined using a Microscan® turbidimeter. Aliquots were transferred to either CSMHB or 40% pooled human serum in CSMHB. Each tube contained either a final concentration of 16 μg/mL rBPI21 or an equivalent volume of control buffer. Minimal inhibitory concentrations (MIC) for each antibiotic tested, i.e. the lowest concentration of antibiotic which inhibits visible growth, were determined using gram-negative (MB and MC) and gram-positive (MA) Sensititre Trays (Radiometer America, Westlake, Ohio), which allow for the rapid and simultaneous survey of a broad spectrum of standard antibiotics. Any other antimicrobial panel systems known in the art, such as the Microscan® (Dade Microscan, Sacramento, Calif.), Pasco (DIFCO, Detroit, Mich.) and Alamar (Alamar, Sacramento, Calif.) systems, may alternatively be used to assay for antibiotic susceptibility.
Tables 12-15 below display a summary of the results of the antibiotic screening panels, reported for each strain tested as the MIC of the tested antibiotics in the presence of the indicated rBPI21 therapeutic composition. The antibiotic susceptibility standards (interpretation of an MIC as clinically resistant (R), intermediate (I) or susceptible (S) according to NCCLS standards) applicable to the organism tested appear in superscript next to the MIC.

[1] = tested on: P. aeruginosa (ATCC 19660); test: Antibiotic susceptibility (MIC, Microscan® MIC Plus Type 2 panel) with rBPI21/P123 and EDTA; assay type: cell-based; parameters: key to susceptibility interpretation of MIC (superscript): R: resistant; I: intermediate; S: susceptible
Procedure: In additional experiments, a BPI protein product, rBPI21, was formulated with an anti-bacterial activity enhancing poloxamer, specifically PLURONIC P123, and with various concentrations of EDTA, and was evaluated for its effect on the antibiotic susceptibility of a Pseudomonas aeruginosa (ATCC 19660). Antibiotic susceptibility was determined using Microscan® panel plates (Dade Microscan, West Sacramento, Calif.) that allow simultaneous determination of minimum inhibitory concentrations for a number of different antibiotics.
The antimicrobial susceptibility tests performed on the Microscan® panel plates are miniaturizations of the broth dilution susceptibility test. Antimicrobial agents are serially diluted in Mueller-Hinton broth (supplemented with calcium and magnesium, or with sodium chloride for oxacillin, or with thymidine phosphorylase for trimethoprim, sulfamethoxazole and trimethoprim/ sulfamethoxazole) to concentrations bridging the range of clinical interest. One well on the 96-well Microscan® plate is a growth control well that contains dehydrated broth only. The remaining wells contain dehydrated broth and antibiotic (or broth and biochemical reagent indicator), which is rehydrated to the desired concentration by inoculation of a standardized suspension of test organism. The chromogenic biochemical agent indicators are used to identify and characterize the species of bacteria based on detection of pH changes and substrate utilization. […] Gram-negative and gram positive organisms may be tested using any of the Microscan® panel plates (Microscan®, Dade Microscan, West Sacramento, Calif.). In these experiments with P. aeruginosa, the MIC Plus Type 2 panel plates were used. The concentrations of antibiotics tested in this panel plate are shown below in Table 16. The antibiotic susceptibility standards (interpretation of an MIC as resistant, intermediate or susceptible according to Microscan®'s NCCLS-derived standards) applicable to the gram-negative organisms that may be tested in each panel plate appear below in Table 16A.
For these experiments with P. aeruginosa, the following procedure was performed: The organism was streaked onto TSA plates (Remel, Lenexa, Kans.) and incubated for 18-24 hours overnight. Well-isolated A, colonies from the plates were emulsified in 3 ml of sterile Inoculum Water d(catalog no. B1015-2, MicrosScan® system, Dade Microscan, West Sacramento, Calif.) to a final turbidity equivalent to 0.5 McFarland Barium Sulfate standard. This cell suspension was vortexed for 2 to 3 seconds and 100 μl was transferred to glass tubes containing 25 ml of Inoculum Water with Pluronic-D (catalog no. B1015-7, MicroScan® system, Dade Microscan, West Sacramento, Calif.) (hereinafter “Pluronic Inoculum Water”), or 25 ml of Pluronic Inoculum Water into which rBPI21 in 0.2% PLURONIC P123, 0.002% TWEEN 80, 5mM sodium citrate, 150 mM NaCl (“rBPI21/P123”) had been diluted to 64 μg/ml rBPI21.
The 25 ml of this inoculum containing rBPI21 was mixed by inversion and poured into a tray. The inoculum was drawn up into a manual 96-well pipetting system (RENOK^− rehydrator-inoculator system, Dade Microscan, West Sacramento, Calif.) designed for use with the Microscan® panel plates, and 110 μl of the inoculum was delivered to each well of a Microscan® MIC Plus Type 2 panel plate. When added to the wells, this inoculum achieves a final bacterial concentration of 4×10^5 to 7×10^5 CFU/ml. The panel plates were then incubated at 35° C. for 15-24 hours and read visually for cell growth.
No growth was defined as a slight whiteness in the well or a clear broth. Growth appeared as turbidity which could take the form of a white haze throughout the well, a white button in the center of the well, or a fine granule growth throughout the well. All wells were read against a black indirectly lighted background. Visual results of the biochemical reactions were read into a database for bacterial identification.

[2] = CSMHB, 16 μg/mL rBPI21 with F68
[3] = CSMHB, 16 μg/mL rBPI21 with P103
[4] = CSMHB, 16 μg/mL rBPI21 with P104
[5] = CSMHB, 16 μg/mL rBPI21 with P105
[6] = CSMHB, 16 μg/mL rBPI21 with P123
[7] = Serum, 16 μg/mL rBPI21 with F68
[8] = Serum, 16 μg/mL rBPI21 with P103
[9] = Serum, 16 μg/mL rBPI21 with P104
[10] = Serum, 16 μg/mL rBPI21 with P105
[11] = Serum, 16 μg/mL rBPI21 with P123
[12] = rBPI21/P123 at 64 μg/ml rBPI21, With 0% EDTA
[13] = rBPI21/P123 at 64 μg/ml rBPI21, With 0.01% EDTA
[14] = rBPI21/P123 at 64 μg/ml rBPI21, With 0.05% EDTA
[15] = rBPI21/P123 at 64 μg/ml rBPI21, With 0.1% EDTA

SMILES	susceptibility interpretation of MIC (superscript) (E. faecium; [2])	susceptibility interpretation of MIC (superscript) (E. faecium; [3])	susceptibility interpretation of MIC (superscript) (E. faecium; [4])	susceptibility interpretation of MIC (superscript) (E. faecium; [5])	susceptibility interpretation of MIC (superscript) (E. faecium; [6])	susceptibility interpretation of MIC (superscript) (E. faecium; CSMHB, Control (no BPI))	MIC (E. faecium; [2]) [µg/mL]	MIC (E. faecium; [3]) [µg/mL]	MIC (E. faecium; [4]) [µg/mL]	MIC (E. faecium; [5]) [µg/mL]	MIC (E. faecium; [6]) [µg/mL]	MIC (E. faecium; CSMHB, Control (no BPI)) [µg/mL]	susceptibility interpretation of MIC (superscript) (E. faecium; [7])	susceptibility interpretation of MIC (superscript) (E. faecium; [8])	susceptibility interpretation of MIC (superscript) (E. faecium; [9])	susceptibility interpretation of MIC (superscript) (E. faecium; [10])	susceptibility interpretation of MIC (superscript) (E. faecium; [11])	susceptibility interpretation of MIC (superscript) (E. faecium; Serum, Control (no BPI))	also measured
O=C(O)c1cn(C2CC2)c2cc(N3CCNCC3)c(F)cc2c1=O [Ciprofloxacin]	S	S	S	S	S	I	1 (≈ 3.02 µM)	< 0.5	1 (≈ 3.02 µM)	1 (≈ 3.02 µM)	1 (≈ 3.02 µM)	2 (≈ 6.04 µM)	S	I	I	I	I	I	Minimum Inhibitory Concentration of Antibiotic ([1]; Control (No BPI21)): < 0.25 µg/mL; susceptibility interpretation of MIC (superscript) ([1]; Control (No BPI21)): S; Minimum Inhibitory Concentration of Antibiotic [1, 12]: < 0.25 µg/mL; susceptibility interpretation of MIC (superscript) [1, 12]: S; Minimum Inhibitory Concentration of Antibiotic [1, 13]: < 0.25 µg/mL; susceptibility interpretation of MIC (superscript) [1, 13]: S; Minimum Inhibitory Concentration of Antibiotic [1, 14]: < 0.25 µg/mL; susceptibility interpretation of MIC (superscript) [1, 14]: S; Minimum Inhibitory Concentration of Antibiotic [1, 15]: < 0.25 µg/mL; susceptibility interpretation of MIC (superscript) [1, 15]: S
CO[C@H]1/C=C/O[C@@]2(C)Oc3c(C)c(O)c4c(O)c(c(/C=N/N5CCN(C)CC5)c(O)c4c3C2=O)NC(=O)/C(C)=C\C=C\[C@H](C)[C@H](O)[C@@H](C)[C@@H](O)[C@@H](C)[C@H](OC(C)=O)[C@@H]1C [Rifampicin]	S	S	S	S	S	R	0.5 (≈ 0.608 µM)	0.5 (≈ 0.608 µM)	0.5 (≈ 0.608 µM)	0.5 (≈ 0.608 µM)	0.5 (≈ 0.608 µM)	4 (≈ 4.86 µM)	S	S	R	S	S	R	MIC (E. faecium; [7]): 1 µg/mL (≈ 1.22 µM); MIC (E. faecium; [8]): 1 µg/mL (≈ 1.22 µM); MIC (E. faecium; [9]): > 4 µg/mL; MIC (E. faecium; [10]): 0.5 µg/mL (≈ 0.608 µM); MIC (E. faecium; [11]): 0.5 µg/mL (≈ 0.608 µM); MIC (E. faecium; Serum, Control (no BPI)): 4 µg/mL (≈ 4.86 µM)
